{"source": "patent US20250171438A1", "about": "(Agios Pharmaceuticals, Inc., priority 2022, published 2025)"}
{"molecular_target": "T1, human PAH with the R408W mutation (Homo sapiens, UniProt P00439, R408W)", "T1 construct": "expressed in transfected cells", "T1 sequence (P00439 1-452 R408W)": "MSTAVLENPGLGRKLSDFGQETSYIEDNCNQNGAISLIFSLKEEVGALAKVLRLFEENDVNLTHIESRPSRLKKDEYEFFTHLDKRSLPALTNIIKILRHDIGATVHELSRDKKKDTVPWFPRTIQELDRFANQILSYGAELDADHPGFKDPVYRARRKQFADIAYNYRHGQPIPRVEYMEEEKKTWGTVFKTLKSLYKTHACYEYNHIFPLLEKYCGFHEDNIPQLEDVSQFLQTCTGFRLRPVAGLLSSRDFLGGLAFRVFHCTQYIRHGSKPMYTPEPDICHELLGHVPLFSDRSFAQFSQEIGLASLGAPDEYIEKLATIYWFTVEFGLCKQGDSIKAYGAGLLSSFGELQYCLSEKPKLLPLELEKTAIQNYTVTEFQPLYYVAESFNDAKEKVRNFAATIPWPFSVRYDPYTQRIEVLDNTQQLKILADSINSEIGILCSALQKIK", "assay": "Cell Based Phenylalanine Flux Assay", "parameters": "scale not given here", "conditions": "A375 cells expressing human R408W PAH; 24 hrs compound incubation; 13C-Tyrosine by LC-MS; average where tested multiple times; read-out: AC50", "units": {"AC50": "nM"}}
{"smiles": "Cc1cccc2sc([C@@H]3c4nc[nH]c4CCN3C(=O)c3cnco3)nc12", "note": "[Example 2013, (S)-(4-(4-methylbenzo[d]thiazol-2-yl)-6,7-dihydro-1H-imidazo[4,5-c]pyridin-5(4H)-yl)(oxazol-5-yl)methanone]", "AC50": "500 to 1000"}
{"smiles": "N#Cc1nn2cc(Br)ccc2c1C(=O)N1CCc2[nH]cnc2[C@@H]1c1nc2ccccc2s1", "note": "[Example 1780, (R)-3-(4-(benzo[d]thiazol-2-yl)-4,5,6,7-tetrahydro-1H-imidazo[4,5-c]pyridine-5-carbonyl)-6-bromopyrazolo[1,5-a]pyridine-2-carbonitrile]", "AC50": "1000 to 5000"}
{"smiles": "Clc1cnc(CN2CCc3[nH]cnc3[C@H]2c2nc3ccccc3[nH]2)s1", "note": "[Example 980, (S)-2-((4-(1H-benzo[d]imidazol-2-yl)-6,7-dihydro-1H-imidazo[4,5-c]pyridin-5(4H)-yl)methyl)-5-chlorothiazole]", "AC50": "500 to 1000"}
{"smiles": "O=C(c1nnc(-c2ccn(C(F)F)n2)o1)N1CCc2[nH]cnc2[C@@H]1c1nc2ccccc2s1", "note": "[Example 1874, (R)-(4-(benzo[d]thiazol-2-yl)-6,7-dihydro-1H-imidazo[4,5-c]pyridin-5(4H)-yl)(5-(1-(difluoromethyl)-1H-pyrazol-3-yl)-1,3,4-oxadiazol-2-yl)methanone]", "AC50": "1000 to 5000"}
{"smiles": "CN(C)Cc1ccc2c(C(=O)N3CCc4[nH]cnc4[C@@H]3c3nc4ccccc4s3)cnn2c1", "note": "[Example 1312, (R)-(4-(benzo[d]thiazol-2-yl)-6,7-dihydro-1H-imidazo[4,5-c]pyridin-5(4H)-yl)(6-((dimethylamino)methyl)pyrazolo[1,5-a]pyridin-3-yl)methanone]", "AC50": "> 5000"}
{"smiles": "Cn1ncnc1C(=O)N1CCc2[nH]cnc2[C@H]1c1nc2ccccc2s1", "note": "[Example 1813]", "AC50": "500 to 1000"}
{"smiles": "O=C(c1ccnn1CC(F)(F)F)N1CCc2[nH]cnc2[C@@H]1c1nc2c(F)cccc2s1", "note": "[Example 1738, (R)-(4-(4-fluorobenzo[d]thiazol-2-yl)-6,7-dihydro-1H-imidazo[4,5-c]pyridin-5(4H)-yl)(1-(2,2,2-trifluoroethyl)-1H-pyrazol-5-yl)methanone]", "AC50": "1000 to 5000"}
{"smiles": "O=C(c1ccnn1-c1ccccn1)N1CCc2[nH]cnc2[C@H]1c1nc2ccccc2s1", "note": "[Example 1855]", "AC50": "< 500"}
{"smiles": "CCc1nnc(CCC(=O)N2CCc3[nH]cnc3[C@@H]2c2nc3ccccc3s2)s1", "note": "[Example 1116, (R)-1-(4-(benzo[d]thiazol-2-yl)-6,7-dihydro-1H-imidazo[4,5-c]pyridin-5(4H)-yl)-3-(5-ethyl-1,3,4-thiadiazol-2-yl)propan-1-one]", "AC50": "> 5000"}
{"smiles": "CC(C)(O)c1ccc2c(C(=O)N3CCc4[nH]cnc4[C@@H]3c3nc4ccccc4s3)cnn2c1", "note": "[Example 1474, (R)-(4-(benzo[d]thiazol-2-yl)-6,7-dihydro-1H-imidazo[4,5-c]pyridin-5(4H)-yl)(6-(2-hydroxypropan-2-yl)pyrazolo[1,5-a]pyridin-3-yl)methanone]", "AC50": "1000 to 5000"}
{"smiles": "O=C(c1nnc(-c2ccccn2)o1)N1CC2(CC2)c2[nH]cnc2[C@H]1c1nc2ccccc2s1", "note": "[Example 1684, (S)-(4′-(benzo[d]thiazol-2-yl)spiro[cyclopropane-1,7′-imidazo[4,5-c]pyridin]-5′(1′H,4′H,6′H)-yl)(5-(pyridin-2-yl)-1,3,4-oxadiazol-2-yl)methanone]", "AC50": "< 500"}
{"smiles": "CC(C)(F)c1ncc(C(=O)N2CCc3[nH]cnc3[C@@H]2c2nc3ccccc3s2)o1", "note": "[Example 1456, (R)-(4-(benzo[d]thiazol-2-yl)-6,7-dihydro-1H-imidazo[4,5-c]pyridin-5(4H)-yl)(2-(2-fluoropropan-2-yl)oxazol-5-yl)methanone]", "AC50": "1000 to 5000"}
{"smiles": "CC(C)(C)c1ncoc1C(=O)N1CCc2[nH]cnc2[C@@H]1c1nc2c(F)cccc2s1", "note": "[Example 2182, (R)-(4-(tert-butyl)oxazol-5-yl)(4-(4-fluorobenzo[d]thiazol-2-yl)-6,7-dihydro-1H-imidazo[4,5-c]pyridin-5(4H)-yl)methanone]", "AC50": "1000 to 5000"}
{"smiles": "O=C(CCC1CC1)N1CCc2[nH]cnc2[C@@H]1c1nc2cccc(F)c2s1", "note": "[Example 1134, (R)-3-cyclopropyl-1-(4-(7-fluorobenzo[d]thiazol-2-yl)-6,7-dihydro-1H-imidazo[4,5-c]pyridin-5(4H)-yl)propan-1-one]", "AC50": "1000 to 5000"}
{"smiles": "O=C(CCC1CC1)N1CCc2[nH]cnc2[C@H]1c1nc2ccc(Br)cc2[nH]1", "note": "[Example 935, (S)-1-(4-(6-bromo-1H-benzo[d]imidazol-2-yl)-6,7-dihydro-1H-imidazo[4,5-c]pyridin-5(4H)-yl)-3-cyclopropylpropan-1-one]", "AC50": "< 500"}
{"smiles": "O=C(c1ncc(Cl)s1)N1CCc2[nH]cnc2[C@@H]1c1nc2ccccc2s1", "note": "[Example 1054, (R)-(4-(benzo[d]thiazol-2-yl)-6,7-dihydro-1H-imidazo[4,5-c]pyridin-5(4H)-yl)(5-chlorothiazol-2-yl)methanone]", "AC50": "1000 to 5000"}
{"smiles": "Cc1nnc(C(=O)N2CCc3[nH]cnc3[C@H]2c2nc3ccccc3s2)s1", "note": "[Example 1041]", "AC50": "1000 to 5000"}
{"smiles": "O=C(c1ccno1)N1CCc2[nH]cnc2[C@H]1c1nc2ccccc2s1", "note": "[Example 1123]", "AC50": "500 to 1000"}
{"smiles": "Cc1nc(CCCN2CC(F)C2)oc1C(=O)N1CCc2[nH]cnc2[C@H]1c1nc2ccccc2s1", "note": "[Example 1671]", "AC50": "500 to 1000"}
{"smiles": "O=C(c1nnc(-c2cc(C(F)(F)F)ccn2)o1)N1CCc2[nH]cnc2[C@@H]1c1nc2ccccc2s1", "note": "[Example 1890, [(4R)-4-(1,3-benzothiazol-2-yl)-1,4,6,7-tetrahydroimidazo[4,5-c]pyridin-5-yl]-[5-[4-(trifluoromethyl)-2-pyridyl]-1,3,4-oxadiazol-2-yl]methanone]", "AC50": "1000 to 5000"}
{"smiles": "Cc1nc(Br)c(C(=O)N2CCc3[nH]cnc3[C@@H]2c2nc3c(F)cccc3s2)o1", "note": "[Example 1759, (R)-(4-bromo-2-methyloxazol-5-yl)(4-(4-fluorobenzo[d]thiazol-2-yl)-6,7-dihydro-1H-imidazo[4,5-c]pyridin-5(4H)-yl)methanone]", "AC50": "1000 to 5000"}
{"smiles": "CC(C)(C)CCC(=O)N1CCc2[nH]cnc2[C@@H]1c1nc2ccccc2[nH]1", "note": "[Example 906, (R)-1-(4-(1H-benzo[d]imidazol-2-yl)-6,7-dihydro-1H-imidazo[4,5-c]pyridin-5(4H)-yl)-4,4-dimethylpentan-1-one]", "AC50": "1000 to 5000"}
{"smiles": "O=C(c1cn(-c2ccccn2)nc1Cl)N1CCc2[nH]cnc2[C@H]1c1nc2c(F)cccc2s1", "note": "[Example 1769]", "AC50": "500 to 1000"}
{"smiles": "O=C(c1cncs1)N1CCc2[nH]cnc2[C@@H]1c1ncc(-c2ccccc2)s1", "note": "[Example 2146, (R)-(4-(5-phenylthiazol-2-yl)-6,7-dihydro-1H-imidazo[4,5-c]pyridin-5(4H)-yl)(thiazol-5-yl)methanone]", "AC50": "> 5000"}
{"smiles": "CC(=O)Cn1cc(C(=O)N2CCc3[nH]cnc3[C@H]2c2nc3c(F)cccc3s2)c(Cl)n1", "note": "[Example 1991, (S)-1-(3-chloro-4-(4-(4-fluorobenzo[d]thiazol-2-yl)-4,5,6,7-tetrahydro-1H-imidazo[4,5-c]pyridine-5-carbonyl)-1H-pyrazol-1-yl)propan-2-one]", "AC50": "< 500"}
{"molecular_target": "T1, human PAH with the R408W mutation", "assay": "Cell Based Phenylalanine Flux Assay", "parameters": "scale not given here", "conditions": "A375 cells expressing human R408W PAH; 24 hrs with compound; 13C-Tyrosine by LC-MS; average where tested multiple times"}
{"smiles": "COCCc1ccc2c(C(=O)N3CCc4[nH]cnc4C3c3nc4ccccc4s3)c(C(F)(F)F)nn2c1", "note": "(centres unmarked)", "AC50": "E, E"}
{"molecular_target": "T1, human PAH with the R408W mutation", "assay": "Cell Based Phenylalanine Flux Assay", "parameters": "scale not given here", "conditions": "A375 cells expressing human R408W PAH; 24 hrs with compound; 13C-Tyrosine by LC-MS; average where tested multiple times; read-out: AC50", "units": {"AC50": "nM"}}
{"smiles": "O=C(c1cnco1)N1CC2(CC2)c2[nH]cnc2C1c1nc2ccccc2s1", "note": "(centres unmarked)", "AC50": "> 5000"}
{"smiles": "O=C(c1cnn2cccc(F)c12)N1CCc2[nH]cnc2C1c1nc2ccc(Cl)cc2[nH]1", "note": "(centres unmarked)", "AC50": "> 5000"}
{"smiles": "O=C(Cc1nc(C(F)(F)F)cs1)N1CCc2[nH]cnc2C1c1nc2c(F)cccc2s1", "note": "(centres unmarked)", "AC50": "> 5000"}
{"smiles": "Cc1ccc2c(C(=O)N3CCc4[nH]cnc4[C@H]3c3nc4ccccc4[nH]3)cnn2c1", "note": "[(S)-(4-(1H-benzo[d]imidazol-2-yl)-6,7-dihydro-1H-imidazo[4,5-c]pyridin-5(4H)-yl)(6-methylpyrazolo[1,5-a]pyridin-3-yl)methanone]", "AC50": "1000 to 5000"}
{"smiles": "O=C(N1CCC(c2ccccc2)C1)N1CCc2[nH]cnc2C1c1nc2ccccc2s1", "note": "(centres unmarked)", "AC50": "1000 to 5000"}
{"smiles": "O=C(c1nncs1)N1CCc2[nH]cnc2C1c1nc2ccc(F)cc2s1", "note": "(centres unmarked)", "AC50": "> 5000"}
{"smiles": "CC1CN(C(=O)c2cnco2)C(c2nc3c(F)cccc3s2)c2nc[nH]c21", "note": "(centres unmarked)", "AC50": "1000 to 5000"}
{"smiles": "Cc1ccc2c(C(=O)N3CCc4[nH]cnc4C3c3nc4ccc(Br)cc4[nH]3)cnn2c1", "note": "(centres unmarked)", "AC50": "> 5000"}
{"smiles": "Cn1ncc(C(=O)N2CCc3[nH]cnc3C2c2nc3c(F)cccc3s2)c1Cl", "note": "(centres unmarked)", "AC50": "1000 to 5000"}
{"smiles": "O=C(c1cnn2cc(Cl)ccc12)N1CCc2nc[nH]c2C1c1nc2cc(F)ccc2s1", "note": "(centres unmarked)", "AC50": "1000 to 5000"}
{"smiles": "O=C(C1CC1F)N1CCc2[nH]cnc2C1c1nc2ccccc2s1", "note": "(centres unmarked)", "AC50": "> 5000"}
{"smiles": "O=C(Cc1nncs1)N1CCc2[nH]cnc2[C@H]1c1nc2c(F)cccc2s1", "note": "(single isomer, unassigned)", "AC50": "1000 to 5000"}
{"smiles": "Cc1cc(C(=O)N2CCc3[nH]cnc3C2c2nc3c(F)cccc3s2)n(-c2ccc(F)cc2)n1", "note": "(centres unmarked)", "AC50": "> 5000"}
{"smiles": "Cn1nc(C(N)=O)cc1C(=O)N1CCc2[nH]cnc2C1c1nc2c(F)cccc2s1", "note": "(centres unmarked)", "AC50": "1000 to 5000"}
{"smiles": "O=C(c1nccs1)N1CCc2[nH]cnc2[C@@H]1c1nc2ccc(Cl)cc2[nH]1", "note": "(single isomer, unassigned)", "AC50": "> 5000"}
{"smiles": "Cc1ncoc1CC(=O)N1CCc2[nH]cnc2C1c1nc2ccccc2s1", "note": "(centres unmarked)", "AC50": "1000 to 5000"}
{"smiles": "O=C(C1CCC1)N1CCc2[nH]cnc2[C@H]1c1nc2ccccc2[nH]1", "note": "[(S)-(4-(1H-benzo[d]imidazol-2-yl)-6,7-dihydro-1H-imidazo[4,5-c]pyridin-5(4H)-yl)(cyclobutyl)methanone]", "AC50": "1000 to 5000"}
{"smiles": "CC(C)(O)c1nsc(C(=O)N2CCc3[nH]cnc3C2c2nc3c(F)cccc3s2)n1", "note": "(centres unmarked)", "AC50": "1000 to 5000"}
